In a melting point compilation (Tetko et al.; mined from patent text by program, amines drawn as free bases though some values may be those of a salt) one finds melting point data, which are given here for 91 compounds.

The structures appear in SMILES notation. A value given as a limit tells only on which side of the number the result lay.

For `C=CC(O)c1ccc2[nH]c(CCCC)nc(=O)c2c1` (stereo unspecified), the melting point – broadly, the temperature of the solid-liquid transition – was found to be 141 °C.
Compound `N#Cc1cnc2sc(C#Cc3ccccn3)cc2c1Nc1ccc2[nH]ccc2c1` displayed a melting point of more than 260 °C.
Then `CC(C)C(=N)Nc1cc(F)ccc1N1CCOCC1`, with 142 °C; and `CCOc1ccc(-n2c(-c3ccncc3)nc(SC)c(C#N)c2=O)cc1`, with 201 to 204 °C; and `Cc1[nH]cnc1CSCCNc1[nH]cc(CCc2ccccc2)c1[N+](=O)[O-]`, with 186 to 187 °C.
Then `CC(c1ccc(-c2ccccc2)o1)N(O)C(N)=O` (stereo unspecified), with 133 to 136 °C; and `O=C(CCCCCl)NC1CCCCC1`, with 70 to 71 °C; and `Fc1cccc(COc2ccc(Nc3ncnc4sc(C#Cc5ccccn5)cc34)cc2Cl)c1`, with 180 °C.
Compound `CC1=NCCn2cccc21` returned a melting point of 25 to 27 °C.
Then `O=S1(=O)NCN(C2CC2)c2c(Cl)cccc21`, with 142 to 143 °C; and `CC(C)c1nc(-c2ccccc2Cc2ccccc2)cc(-c2ccc(F)cc2)c1C=O`, with 205 to 207 °C.
In the case of `CC(CNS(C)(=O)=O)Nc1nc(Cl)ncc1Cl` (stereo unspecified), the melting point is 160 °C.
`COc1ccc(Nc2nc(-c3ccccc3)cc(N3CCC(O)CC3)n2)cc1Cl` returned a melting point of 220 to 240 °C.
`Cc1[nH]c(-c2ccccc2)c(N)c1C(=O)Nc1ccccc1` showed a melting point of 271 to 273 °C.
Then `NC(=O)/C=C/C1=CC=CC(F)(C(F)(F)F)C1` (stereo unspecified), with 121 to 122 °C.
Regarding `COc1ccc(C2=NN(c3cnc4ccccc4n3)C(=O)[C@H]3CC=CC[C@@H]23)cc1OC` (relative stereo), the melting point was in the range of 154 to 156 °C.
Then `O=C1CCC(N2Cc3cc(CNC(=O)Nc4cc(C(F)(F)F)ccc4Cl)ccc3C2=O)C(=O)N1` (stereo unspecified), with 240 to 242 °C; and `Cc1nc2cc(OCCCCl)ccc2s1`, with 63 to 65 °C; and `COC(=O)c1ccc(NC(=O)c2cc(C(C)C)c(C(C)C)o2)cc1O`, with 156 to 157 °C.
Then `CCCc1cc(F)c(C(=O)O)c([N+](=O)[O-])c1O`, with 128 to 129 °C; and `C=CCC1COC(CC)(CC(=O)O)c2[nH]c3c(CC)cccc3c21` (stereo unspecified), with 96 to 97 °C.
`CC(C)(N)CNS(=O)(=O)c1ccccc1` returned a melting point of 152 to 153 °C.
Then `O=C(CC(=O)C1CC1)c1cccnc1`, with 69 to 70 °C.
Then `CC1(C)COP(=O)(O)OC1c1cccc2ccccc12` (stereo unspecified), with 216 to 217 °C.
Then `CC(C)(C)NC(=S)Nc1cccc(SCCCC#N)n1`, with 156 to 157 °C; and `CC(=O)NCc1ccc(CN2CCN(c3ccc(F)cc3[N+](=O)[O-])CC2)cc1`, with 94.5 to 96 °C.
`N#Cc1cccc2nc(CCC#Cc3ccccn3)oc12` returned a melting point of 126 °C.
Then `N#Cc1ccc(C(=O)N2CCN(C(=O)[C@@H]3CCCN3S(=O)(=O)c3ccc(Cl)c(CBr)c3Cl)CC2)cc1`, with 115 °C; and `CCCCCCCCCCCCCCCCC1=C(c2cn(C)c3ccccc23)C(=O)NC1=O`, with 112 to 114 °C.
For the compound `Nc1ccc(NCCO)c(S(=O)(=O)CCO)c1`, the melting point was 130 °C.
`CC[C@H](CO)Nc1nc(Nc2ccccn2)c2ncn(C(C)C)c2n1` gave a melting point of 30 to 35 °C.
Then `O=C(O)CCC(=O)OCCc1ccccc1`, with 60 to 62 °C.
Then `O=C1C[C@@H](C(=O)O)N(C(=O)OCc2ccccc2)C1`, with 99 to 101 °C; and `COC(=O)c1cc(Cl)sc1NC(C)=O`, with 110 °C; and `CC(C)[Si](C)(C)CCCSCCNC(=O)n1cc(F)c(=O)[nH]c1=O`, with 113 to 114 °C.
Then `CC(=O)Nc1ccc2c(c1)CCC(CC#N)C2=O` (stereo unspecified), with 189 to 190 °C; and `COC1=C(C(=O)c2ccc(C)cc2)C(c2ccc(OC(F)(F)F)cc2)N(c2ccc(C)nn2)C1=O` (stereo unspecified), with 206 to 207 °C.
Compound `c1csc(-c2nc(CCCOc3ccc(CCCn4ccnc4)cc3)co2)c1` yielded a melting point of 99 to 100 °C.
Then `O=c1c2cnc(-c3ccccc3)nc2sn1Cc1ccccn1`, with 154 to 156 °C; and `O=C(Nc1ccccc1)OCC(=O)c1ccccc1`, with 146 to 148 °C; and `CC(C)(CO)NS(=O)(=O)c1cccc(NC(=O)c2cnn3c(C(F)(F)F)cc(-c4ccc(OC(F)(F)F)cc4)nc23)c1`, with 212 °C.
`O=C(CCl)Nc1ccc2c(c1)CC(=O)N2` displayed a melting point of 166 to 170 °C.
Then `C#CCOCC(CC)(OC)c1cccc(OCc2ccc3ccccc3c2)c1` (stereo unspecified), with 54 °C; and `O=C(O)c1ccc(Cl)cc1NC(=O)C(CS)Cc1ccccc1` (stereo unspecified), with 134 to 136 °C.
Then `CCn1ncc2c(NCc3ccc(OC)cc3)c3cc(OC)ccc3nc21`, with 263 to 265 °C.
In turn, `Cc1nc(-c2ccc(C(=O)N[C@H]3CC[C@H](CCN4CCC(c5cccc6c5CCO6)CC4)CC3)cc2)no1` displayed a melting point of 256 °C.
The compound `C(=C\c1nc(COc2ccc(CCn3ccnc3)cc2)co1)/c1ccccc1` returned a melting point of 165 to 166 °C.
Then `COc1ccc(NC(=O)c2ccc([N+](=O)[O-])c(C)c2)cc1`, with 168 to 169 °C; and `O=C(c1ccco1)N1CCN(Cc2ccc(-c3cc4ncnc(Nc5ccc6[nH]ccc6c5)c4s3)cc2)CC1`, with 167 to 174 °C; and `Cc1c(F)ccc(C#N)c1Cl`, with 63 to 65 °C.
Then `CC(C)(CO)Cc1cc(C(C)(C)C)c(O)c(C(C)(C)C)c1`, with 84 to 86 °C; and `COc1ccc(-c2nccc3c(CC#N)cccc23)cc1`, with 130 to 132 °C; and `CCCCCCC(O)CC(=O)O` (stereo unspecified), with 49.3 to 50 °C.
As to `CCCCCCCCCCC(=O)NCc1cccc2c1C(=O)N(C1CCC(=O)NC1=O)C2=O` (stereo unspecified), the melting point fell in the range of 138 to 139 °C.
Then `CSc1nn2c(N)cc(C)nc2c1S(=O)(=O)c1ccc(F)cc1`, with more than 230 °C; and `Nc1[nH]c(=O)[nH]c(=O)c1N`, with 144 to 146 °C.
Then `COc1ccc2c(c1)OC(C)(C)C(NC(=O)c1cc(Cl)ccc1OC)C2=O` (stereo unspecified), with 174 °C; and `CCC1=Cc2cc(OCC(=O)O)c(Cl)c(Cl)c2C1=O`, with 205 to 207 °C; and `O=S(=O)(C(/C=C/c1ccc(Br)cc1)c1c(F)c(F)c(F)c(F)c1F)C(/C=C/c1ccc(Br)cc1)c1c(F)c(F)c(F)c(F)c1F` (stereo unspecified), with 176 to 177 °C.
Then `CC(C)Sc1nc(-c2ccc(Cl)cc2)c(CCC(=O)O)o1`, with 132 to 133 °C.
With `C=COCCN1C(=O)N(CN2C(=O)N(CCOC=C)C(=O)C2(C)C)C(C)(C)C1=O`, the melting point was 90 to 92 °C.
Then `CC(C)(C)OC(=O)C=CC1C(C(=O)OC(C#N)c2ccc(F)c(Oc3ccccc3)c2)C1(C)C` (stereo unspecified), with 114 °C; and `NC(=S)NNC(=O)CCCCc1ccccc1`, with 140 to 141 °C; and `Cc1nc2ccc3nc(O)c(O)nc3c2nc1C`, with more than 300 °C.
Take `N#Cc1ccc(-c2nc(COc3ccc(CCCn4ccnc4)cc3)co2)s1`: the melting point was 73 to 74 °C.
Then `CCCCOc1ccc2c(c1)C(N(CC(=O)NC(=N)N)S(C)(=O)=O)CC(C)(C)O2` (stereo unspecified), with 112 to 114 °C; and `Cc1cccc(C(=O)NC2CN3CCC2CC3)c1C` (racemic), with 160 to 161 °C.
Then `Cc1nc2c(-c3ccc(N4CCN(C)CC4)cc3)cnn2c(N)c1-c1cccc(Cl)c1`, with 113 to 115 °C.
Then `COC(=O)CCC(N=O)C(C)(C)Cl` (stereo unspecified), with 90 to 91 °C; and `COC(=O)CCc1cc2cc(C(F)(F)F)ccc2n1S(=O)(=O)c1ccc2nc(N)sc2c1`, with 135 to 136 °C.
On to `CC(C)(C)OC(=O)N1CCn2c(c(C(N)=O)c(C#N)c2C2CCN(S(C)(=O)=O)CC2)C1`, for which the melting point worked out at 220 °C.
Consider `CCCCCCCCCCCCCCCCCCOC(=O)CCc1cc(C(C)(C)C)c(OP2Nc3ccccc3O2)c(C(C)(C)C)c1` (stereo unspecified), for which the melting point was 58 to 65 °C.
Then `COc1ccc(C(=O)Nc2ccccc2)cc1NS(=O)(=O)c1cccc2ccccc12`, with 212 to 213 °C; and `OCc1cn2c(n1)CN=C(c1ccccn1)c1cc(I)ccc1-2`, with 206 to 207 °C; and `C=C(C(=O)c1ccc(OC)c(Cl)c1Cl)c1ccc(Br)cc1`, with 110 to 116 °C.
Then `CCOC(=O)c1cn(-c2cc(N)c(F)cn2)c2c(Cl)c(F)c(F)cc2c1=O`, with 140 to 148 °C; and `COc1ccc(C(O)Cc2ccncc2)cc1OC1CCCC1` (stereo unspecified), with 97 to 101 °C; and `CC1=C(C#N)C(c2cccc([N+](=O)[O-])c2)C2=C(CCCC2=O)N1` (stereo unspecified), with 214 to 216 °C.
As for `C=CCOc1ccc(C(=O)C=Cc2cc(OC)cc(OC)c2C)cc1`, the melting point fell in the range of 123 to 124 °C.
`CC(C)(C)Nc1nc(N2CCCC2)cc(N2CCNCC2)n1`: the melting point was 162 to 165 °C.
Then `CCc1ccc(CC)n1Nc1ccc(N2CCOCC2)nn1`, with 186 to 189 °C; and `O=C1Nc2ccccc2CCC1Oc1ccc([N+](=O)[O-])c(OCc2ccccc2)c1` (stereo unspecified), with 188 to 189 °C; and `COc1ccc2oc(N(C=O)[C@@H](Cc3ccccn3)c3ncc(-c4ccc([N+](=O)[O-])cc4)n3C)cc2c1`, with 210 to 211 °C.
Then `Cc1nc(N2CCN(c3ccccc3)C2=O)sc1C(=O)NCc1ccccc1`, with 234 to 236 °C.
Then `Cc1oc(C=Cc2ccccc2Cl)nc1C(=O)O`, with 223 to 224 °C.
With `C=CCn1c(-c2cccnc2)nn(CCCCN2CCN(c3ccccc3OC)CC2)c1=O`, the melting point lay in the range of 71 to 75 °C.
Then `CC(C)[C@H](NC(=O)CCC(=O)Nc1ccccc1)C(N)=O`, with 218 to 220 °C.
In turn, `Cc1cc(OCCCCOc2ccc([N+](=O)[O-])c(C)c2)ccc1[N+](=O)[O-]` yielded a melting point of 108 to 110 °C.
`CN(NC(=O)OC(C)(C)C)C(=O)C(C)(C)ON1C(=O)c2ccccc2C1=O`: the melting point lay within 140 to 145 °C.
Then `COc1nn(CC(=O)C2CC2)c(=O)s1`, with 98 to 100 °C; and `Cc1cc(C)cc(-n2ncc(C(=O)O)c2C(N)=O)c1`, with 223 to 225 °C.
